Results published in the OPERA property sets (Mansouri et al. 2018).
Where a SMILES comes first, the peptide text is derived from it.

SMILES | logP
COc1ccc(C2Cc3cc(OCc4ccccc4)ccc3N(CCN(C)C)C(=O)C2OC(C)=O)cc1 (configuration not stated) | 5.4
CCON=C(C)c1cccc(Oc2nc(OC)cc(OC)n2)c1C(=O)OC | 2.96
Cc1cn(C2C=CC(COP3(=O)OCc4ccccc4O3)O2)c(=O)[nH]c1=O (configuration not stated) | 0.28
CCCCNCc1ccc(C)cc1 | 3.49
Cc1cc2c(o1)c(C)cc1c(C)cc(=O)oc12 | 3.28
CC(SSc1ncc[nH]1)c1ccccc1 (configuration not stated) | 3.39
CN(C)CCCCc1ccccc1 | 3.15
COc1ccc(CCNCC(O)COc2ccc(-c3nc(Br)c[nH]3)cc2)cc1OC (configuration not stated) | 3.2
CCc1cccc(COC(=O)C2C(C=C(C)C(=O)OC)C2(C)C)c1 (configuration not stated) | 5.42
CCC(C)NC(=O)N1C(=O)N(C)CC1O (configuration not stated) | 1.28
NC(Cc1ccccc1)C(=O)NC(Cc1ccccc1)C(=O)NC(Cc1ccccc1)C(=O)NC(Cc1ccccc1)C(=O)O (configuration not stated) (H-FFFF-OH; configuration not given here) | 1.63
CC1NCCc2c1[nH]c1ccccc21 (configuration not stated) | 2.06
O=C(O)CCCCCON=C(c1cncnc1)c1cccc(C(F)(F)F)c1 | 3.65
O=C(NS(=O)(=O)c1cnccc1NC1CCCCCC1)N1CCCCC1 | 4.14
Nc1nnnn1-c1cc(Cl)c(Cl)cc1Cl | 2.3
NC(Cc1ccc(O)cc1)C(=O)N1CCCC1C(=O)O (stereo not drawn) (H-Tyr-Pro-OH; configuration not given here) | -2.03
CC(NCC(O)CON=C(C1CC1)C1CC1)c1ccccc1 (configuration not stated) | 2.32
O=C1Oc2ccccc2CN1CCO[N+](=O)[O-] | 1.82
CCCCNCC(C)O (configuration not stated) | 1.22
CC(C)CCCCCNc1[nH]cnc2ncnc1-2 | 4.16
CC1CCCCC1NC(=O)N1C(=O)N(C)CC1O (configuration not stated) | 2.2
COc1ccc(CCNCC(O)COc2ccc(Cc3nc(C)c[nH]3)cc2)cc1OC (configuration not stated) | 2.5

SMILES | logP
Cc1ccccc1Nc1ccncc1S(=O)(=O)NC(=O)NC1CCCCC1 | 4.35
COCCNC(=O)c1c(C)nc2c3c(c(C(=O)N(C)C)cn12)CCC(c1ccccc1)O3 (configuration not stated) | 2.15
CN(C)CCOc1cc2c(c3ccccc13)-c1ccccc1C2=O | 4.32
CNS(=O)(=O)c1nnc(NC(C)=O)s1 | 0.49
CC(=O)c1ccc2ccc3cccc4ccc1c2c34 | 4.18
CC1CC(=O)NN=C1c1ccc(-n2ccnc2)cc1 (configuration not stated) | 1.29
CC(=O)N(O)CCCCCNC(=O)CCC(=O)N(O)CCCCCNC(=O)CCC(=O)N(O)CCCCCNC=O | -0.33
Nc1ccn([C@H]2CS[C@@H](CO)O2)c(=O)n1 | -0.93
Cc1ccc([N+](=O)[O-])c(C(=O)O)c1 | 1.63
Cc1ccc(Cl)c(Cc2ccc(Cl)cc2Cl)c1 | 6.38
NC(=O)c1c(O)cccc1O | 0.6
CCCCNC1CC(OC2CC(O)(C(=O)CO)Cc3c(O)c4c(c(O)c32)C(=O)c2c(OC)cccc2C4=O)OC(C)C1O (configuration not stated) | 2.12
CCC(C)C(NC(=O)C(CC(C)C)NC(=O)C(NC(=O)C(N)CCSC)C(C)CC)C(=O)O (configuration not stated) (H-MILI-OH; configuration not given here) | -0.49
COC(=O)Sc1ncc(C=C(C(=O)OC)C(=O)OC)n1C | 0.49
CCCCCOCCCNc1[nH]cnc2ncnc1-2 | 2.74
CC(=O)OC1CCCC2(C)CCC(C(C)(C)OC(C)=O)CC12 (configuration not stated) | 5.06
c1ccc2c(c1)OCC(c1ncc[nH]1)O2 (configuration not stated) | 1.76
CN(C)CC(c1ccccc1)c1ccccc1 | 3.58
O=C1N=C(N2CCOCC2)CN1Cc1ccccc1Cl | 1
CC(C)CC(N)C(=O)N1CCCC1C(=O)NC(CC(C)C)C(=O)NC(CC(C)C)C(=O)O (configuration not stated) (H-LPLL-OH; configuration not given here) | -0.92
O=C1C=C(N2CCOCC2)C(=O)N1c1ccc(F)cc1 | 1.5
CCC(C)C(NC(=O)C(N)Cc1ccc(O)cc1)C(=O)NC(CC(C)C)C(=O)NCC(=O)O (configuration not stated) (H-YILG-OH; configuration not given here) | -1.49

SMILES | logP
COc1ccc(CCNCC(O)COc2ccc(Cc3nc(C(C)=O)c[nH]3)cc2)cc1OC (configuration not stated) | 2.3
Clc1nc(-c2ccccc2)nc2ccccc12 | 4.47
CC12CC(Cl)(Cl)C(CC1(Cl)Cl)C2(CCl)C(Cl)Cl (configuration not stated) | 5.49
C=CCN(N=O)C(=O)N(CCC)CCCCC(NC(C)=O)C(=O)NCc1ccccc1 (configuration not stated) | 2.11
COc1ccc(CCNCC(O)COc2ccc(-c3nccs3)cc2)cc1OC (configuration not stated) | 2.5
C=C1C=CCC(C)=CCC1 | 4.17
O=[N+]([O-])c1cc(F)ccc1O | 1.88
CC(C)CC(N)C(=O)NC(CC(C)C)C(=O)NC(CC(C)C)C(=O)N1CCCC1C(=O)O (configuration not stated) (H-LLLP-OH; configuration not given here) | -1.18
CCC(C)C(N)C(=O)NC(CO)C(=O)NC(C(=O)O)C(C)CC (stereo not drawn) (H-Ile-Ser-Ile-OH; configuration not given here) | -2.64
COc1ccc(N2CC(N3CCCCC3)=NC2=O)cc1 | 1.5
CCCCOC(NC(=O)c1ccccc1O)C(Cl)(Cl)Cl (configuration not stated) | 4.45
C#CCCCCl | 1.85
CCOC(=O)c1cn2c(C)c(C)nc2c2c1CCC(c1ccccc1)O2 (configuration not stated) | 5.5
COc1ccc(O)c(C2=NC(C)(C(=O)O)CS2)c1 (configuration not stated) | 1.8
Cc1c(C(=O)O)cccc1[N+](=O)[O-] | 2.16
CCc1cccc(Nc2ccncc2S(=O)(=O)NC(=NC#N)NC(C)C)c1 | 2.4
COc1ccc(C2Cc3cc(OC(=O)C(C)(C)C)ccc3N(CCN(C)C)C(=O)C2OC(C)=O)cc1 (configuration not stated) | 4.9
COc1ccc2cc(C(C)C(=O)OCCCCOC(C)=O)ccc2c1 (configuration not stated) | 3.3
CC(N)C(=O)N1CCCC1C(=O)O (configuration not stated) | -2.71
Cc1coc2nc3oc(=O)ccc3c(C)c12 | 1.71
CCCCNc1ncnc2nc[nH]c12 | 2
COP(=O)(OC)Oc1c(Cl)cc(C)cc1Cl | 2.66

SMILES | logP
Cc1cccc2nc(N)nc(N)c12 | 1.26
CC(C)C(N)C(=O)NC(Cc1ccccc1)C(=O)NC(Cc1ccc(O)cc1)C(=O)O (configuration not stated) | -1.5
CC(C)CC(N)C(=O)NC(Cc1ccccc1)C(=O)O (stereo not drawn) (H-Leu-Phe-OH; configuration not given here) | -1.15
Cc1ccccc1CNc1[nH]cnc2ncnc1-2 | 2.58
CCCC(=NOCC)C1=C(O)CC2(CCCC3CCCCC32)OC1=O (configuration not stated) | 5
c1cc2ccc1CCc1ccc(cc1)CC2 | 4.33
Cc1cc2c(C)cc3oc(=O)cc(C)c3c2o1 | 3.25
COC(=O)c1cc2cccc3ccc4cccc1c4c32 | 4.73
O=c1nc2[nH]nc(-c3ccccc3)cc-2c(=O)[nH]1 | 1.56
Cc1ccc(CO)c(C=NNC(=O)c2ccncc2)c1O | 2.16
COCCOCCOCCOc1ccc(C2=NC(C)(C(=O)O)CS2)c(O)c1 (configuration not stated) | 1.3
O=C(O)C1CSC(c2ccc(O)cc2O)=N1 (configuration not stated) | 1.1
COC(=O)C1=C(C)NC(C)=C(C(=O)OC)C1c1cccc2c1OCO2 | 3.46
Nc1nc(N)nc(-c2ccc(SC(F)(F)F)cc2)n1 | 3.2
CCC(C)C(NC(=O)C(C)N)C(=O)O (configuration not stated) | -2.6
CCc1ccc(OCC2CN=C(N)O2)cc1 (configuration not stated) | 2.27
CCc1c(O)c(=O)ccn1CCCCO | -0.28
O=C(O)CCCON=C(c1ccccc1)c1ncccn1 | 1.64
COc1ccc2c(c1)CCN(C)C2 | 2.32
Fc1ccc(CNc2[nH]cnc3ncnc2-3)cc1 | 2.34
O=C(NO)C(=Cc1ccccc1)C(=O)NCc1ccc(F)cc1 | 1.7
